Patent US11059823B2, “Small molecule inhibitors of the JAK family of kinases” (Janssen Pharmaceutica NV, priority 2016, dated 2021)
Read-outs that look alike come from different tables or passages of the source.

Tests used:
[1] = Plasma and colon concentrations after p.o. dosing (Protocols 1 and 2); assay type: in vivo, female C57BL/6 mice; conditions: female, C57BL/6, mouse, po, mice, 25 mg/kg p.o.
Protocol: These protocols are described below under the heading In vivo Studies.
(§1) Three non-fasted female C57BL/6 mice were orally administered test compound at a dose of 25 mg/kg p.o. as a solution in 20% hydroxypropyl-beta-cyclodextrin (HPβCD) at a dose volume of 5 mL/kg. Blood samples were collected at 0.5, 2, and 4 h post dose via retro-orbital bleed or venipuncture of the dorsal metatarsal vein. Blood samples were collected into tubes containing anticoagulant (Heparin-Na) and placed on wet ice. The plasma fraction was separated by centrifugation and frozen at −20° C. for up to 4 h and −80° C. after 4 h unless analyzed shortly after sample collection. Colon samples were collected at 4 h post dose. From the beginning of the cecum, a 4-6 cm sample of the colon was dissected, cut open on the longitudinal axis, and the solid contents removed by flushing with 2 mL of saline. The colon was further washed by putting it in 5 mL of saline and shaken for 5 seconds. The colon sample was then patted dry, weighed, and homogenized as 1 part tissue (g) to 4 parts HPLC grade water (mL). Concentrations of the compound in plasma and colon homogenate were determined using a qualified liquid chromatography-triple quadrupole mass spectrometry (LC-MS/MS) method.
as §1, with “HPβCD” for “hydroxypropyl-beta-cyclodextrin (HPβCD)”, “or” for “or venipuncture of the”, “2 cm below” for “the beginning of”, “4” for “4-6”

[2] = physchem; conditions: thermodynamic from solid
[3] = molecular target: JAK1-JH1JH2 (Homo sapiens (Human), UniProt P23458); assay: Enzymatic inhibition assay (HTMS), JAK1; assay type: biochemical; conditions: 12.5 μM ATP; read-out: JAK1_JH1JH2 IC50
Excerpt: (§2) JAK1-JH1JH2 (574-1154 with a His-GST Tag and a C-terminal tev (ENLYFQ-G) cleavage site), JAK3-JH1JH2 (512-1124 with a GST Tag and a C-terminal tev (ENLYFQ-G) cleavage site), and Tyk2-JH1JH2 (8H_tev_580-1182-C936A-C1142A with a C-terminal tev (ENLYFQ-G) cleavage site) were purified internally. […] LC/MS grade water and acetonitrile (ACN), were purchased from HoneyWell, Burdick & Jackson (Muskegon, Mich., USA). Dimethylsulfoxide 99.8% (DMSO) and trifluoroacetic acid 99.5% (TFA) were purchased from EMD Chemical (Gibbstown, N.J., USA). Adenosine triphosphate (ATP), 4-morpholinepropanesulfonic acid (MOPS), magnesium chloride (MgCl2), ethylenediaminetetraacetic acid (EDTA), dithiothreitol (DTT), formic acid >95% (FA) and Tween-20 were purchased from Sigma (St Louis, Mo., USA). 384-well polypropylene plates, Cat#781280 were purchased from Greiner (Monroe, N.C.), RapidFire™ cartridge A C4 Column (Agilent Technologies, Santa Clara, Calif.). […]
(§3) 11-point dosing series were made for each compound by serially diluting 1:3 or 1:4 in DMSO, with point 12 being a DMSO control. […] Compound inhibition was assessed by a decrease of the phosphorylated product levels in sample wells compared to the non-inhibited enzyme reaction. […]

[4] = molecular target: JAK3-JH1JH2 (Homo sapiens (Human), UniProt P52333); assay: Enzymatic inhibition assay (HTMS), JAK3; assay type: biochemical; conditions: 150 μM ATP; read-out: JAK3_I_JH1JH2 IC50
Excerpt: as §2, §3

Sequence of JAK1-JH1JH2 (P23458 574-1154): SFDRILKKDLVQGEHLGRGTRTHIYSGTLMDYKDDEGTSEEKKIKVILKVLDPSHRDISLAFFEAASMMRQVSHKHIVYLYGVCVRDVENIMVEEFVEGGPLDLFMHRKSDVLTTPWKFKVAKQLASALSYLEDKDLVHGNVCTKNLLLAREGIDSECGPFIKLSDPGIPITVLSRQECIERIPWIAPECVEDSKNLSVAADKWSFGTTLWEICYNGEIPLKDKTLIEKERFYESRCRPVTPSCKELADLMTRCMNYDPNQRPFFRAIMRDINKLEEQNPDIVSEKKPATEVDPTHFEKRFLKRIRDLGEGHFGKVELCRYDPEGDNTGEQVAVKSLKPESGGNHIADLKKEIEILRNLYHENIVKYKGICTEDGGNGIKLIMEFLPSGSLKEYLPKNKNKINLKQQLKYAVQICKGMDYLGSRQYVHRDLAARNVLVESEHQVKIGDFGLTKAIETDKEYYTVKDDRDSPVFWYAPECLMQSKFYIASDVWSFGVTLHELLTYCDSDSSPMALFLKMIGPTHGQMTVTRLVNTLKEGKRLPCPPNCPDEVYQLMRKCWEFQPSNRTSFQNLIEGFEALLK
Sequence of JAK3-JH1JH2 (P52333 512-1124): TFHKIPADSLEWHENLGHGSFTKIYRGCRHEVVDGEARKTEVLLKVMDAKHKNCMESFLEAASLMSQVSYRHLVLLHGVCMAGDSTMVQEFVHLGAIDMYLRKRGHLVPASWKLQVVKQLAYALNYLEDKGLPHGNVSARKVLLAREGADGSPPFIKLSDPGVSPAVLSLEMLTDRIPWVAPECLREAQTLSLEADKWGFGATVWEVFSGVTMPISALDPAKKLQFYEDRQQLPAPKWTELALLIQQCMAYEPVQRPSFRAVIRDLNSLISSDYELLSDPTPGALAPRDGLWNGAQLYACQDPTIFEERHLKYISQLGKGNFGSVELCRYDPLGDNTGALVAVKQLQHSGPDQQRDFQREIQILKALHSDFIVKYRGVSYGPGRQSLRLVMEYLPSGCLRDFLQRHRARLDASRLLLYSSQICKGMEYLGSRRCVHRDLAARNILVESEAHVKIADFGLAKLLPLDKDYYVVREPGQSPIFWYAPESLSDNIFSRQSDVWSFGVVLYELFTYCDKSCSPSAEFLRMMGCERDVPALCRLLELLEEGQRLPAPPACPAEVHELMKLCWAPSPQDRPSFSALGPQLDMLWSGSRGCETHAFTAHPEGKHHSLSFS

Question: Which concentration at 4 h ([1]; colon, read-out: Colon Concentration After p.o. Dosing, Mean) does the source give for `N#CC[C@H]1CC[C@H](n2c(-c3c[nH]cn3)nc3cnc4[nH]ccc4c32)CC1` [Ex. 2, 2-((1r,4r)-4-(2-(1H-Imidazol-4-yl)imidazo[4,5-d]pyrrolo[2,3-b]pyridin-1(6H)-yl)cyclohexyl)acetonitrile] here?
Answer: The concentration at 4 h was 7600 ng/g.

Question: What about the concentration at 0.5 h ([1]; plasma, Time = 0.5 h) of the same molecule?
Answer: Its concentration at 0.5 h is 24.5 ng/mL.

Question: And the concentration at 2 h ([1]; plasma, Time = 2 h)?
Answer: Its concentration at 2 h is 4.2 ng/mL.

Question: And the concentration at 4 h ([1]; plasma, read-out: Plasma Concentration After p.o. Dosing, Mean)?
Answer: Its concentration at 4 h is 1.3 ng/mL.

Question: And the solubility ([2]; pH 6.5, fassif)?
Answer: Its solubility is greater than 400 µM.

Question: And the solubility ([2]; simulated gastric fluid)?
Answer: Its solubility is greater than 400 µM.

Question: And the IC50 [3]?
Answer: Its IC50 is 0.2 nM.

Question: What about the IC50 [4] of the same molecule?
Answer: The IC50 was 33.9 nM.
